Experimental data taken from patent publication US11739098B2 (BRISTOL-MYERS SQUIBB COMPANY, priority 2017, dated 2023).

Tests used:
Type in all cases: cell-based
human TLR8 = molecular target: T1, human TLR8 (Homo sapiens, UniProt Q9NR97); experiment: TLR8 inhibition reporter assay (HEK-Blue cells, SEAP reporter, R848 stimulation); conditions: HEK-Blue cells overexpressing human TLR8, SEAP reporter, R848 15.9 μM
T1 construct: host or cells: HEK-Blue cells (HEK293-derived reporter line)
T1 sequence (Q9NR97 27-1041): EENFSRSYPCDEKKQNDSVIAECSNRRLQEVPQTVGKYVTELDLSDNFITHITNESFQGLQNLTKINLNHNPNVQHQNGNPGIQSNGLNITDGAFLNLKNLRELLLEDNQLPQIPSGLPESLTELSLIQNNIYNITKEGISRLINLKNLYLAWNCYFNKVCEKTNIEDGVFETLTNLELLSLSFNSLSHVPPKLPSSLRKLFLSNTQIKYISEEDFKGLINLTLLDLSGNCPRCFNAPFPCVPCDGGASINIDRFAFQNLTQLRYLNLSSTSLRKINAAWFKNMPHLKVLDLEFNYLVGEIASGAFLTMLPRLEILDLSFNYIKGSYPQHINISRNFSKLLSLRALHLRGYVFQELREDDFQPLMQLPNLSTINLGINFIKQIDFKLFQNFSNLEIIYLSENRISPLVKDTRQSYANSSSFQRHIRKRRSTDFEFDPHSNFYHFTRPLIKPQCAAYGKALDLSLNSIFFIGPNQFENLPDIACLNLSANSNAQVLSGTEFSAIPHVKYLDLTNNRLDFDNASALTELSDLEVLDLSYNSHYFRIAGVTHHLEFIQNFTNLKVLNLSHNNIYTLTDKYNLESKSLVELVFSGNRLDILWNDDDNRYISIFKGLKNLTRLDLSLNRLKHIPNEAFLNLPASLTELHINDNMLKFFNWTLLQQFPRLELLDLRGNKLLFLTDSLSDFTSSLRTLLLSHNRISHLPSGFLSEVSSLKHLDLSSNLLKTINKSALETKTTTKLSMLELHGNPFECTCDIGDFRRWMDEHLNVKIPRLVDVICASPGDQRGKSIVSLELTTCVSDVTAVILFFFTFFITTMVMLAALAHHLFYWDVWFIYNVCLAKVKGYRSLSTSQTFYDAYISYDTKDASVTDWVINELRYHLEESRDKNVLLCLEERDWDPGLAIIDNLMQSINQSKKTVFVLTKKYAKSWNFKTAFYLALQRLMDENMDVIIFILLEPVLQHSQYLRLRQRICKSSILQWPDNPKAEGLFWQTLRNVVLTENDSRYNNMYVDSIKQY
In short: (§1)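 Agonists (final): TLR7 gardiquimod 7.5 μM; TLR8 R848 15.9 μM; TLR9 ODN2006 5 nM. HEK-Blue reporter cells, 30 min RT compound pre-incubation, 0.05 nM–50 μM dose range, 22 h at 37 °C, colorimetric SEAP detection medium. % inhibition relative to agonist+DMSO and known-inhibitor wells.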

human TLR9 = molecular target: T2, human TLR9 (Homo sapiens, UniProt Q9NR96); experiment: TLR9 inhibition reporter assay (HEK-Blue cells, SEAP reporter, ODN2006 stimulation); conditions: HEK-Blue cells overexpressing human TLR9, SEAP reporter, ODN2006 5 nM
T2 construct: host or cells: HEK-Blue cells (HEK293-derived reporter line)
T2 sequence (Q9NR96 26-1032): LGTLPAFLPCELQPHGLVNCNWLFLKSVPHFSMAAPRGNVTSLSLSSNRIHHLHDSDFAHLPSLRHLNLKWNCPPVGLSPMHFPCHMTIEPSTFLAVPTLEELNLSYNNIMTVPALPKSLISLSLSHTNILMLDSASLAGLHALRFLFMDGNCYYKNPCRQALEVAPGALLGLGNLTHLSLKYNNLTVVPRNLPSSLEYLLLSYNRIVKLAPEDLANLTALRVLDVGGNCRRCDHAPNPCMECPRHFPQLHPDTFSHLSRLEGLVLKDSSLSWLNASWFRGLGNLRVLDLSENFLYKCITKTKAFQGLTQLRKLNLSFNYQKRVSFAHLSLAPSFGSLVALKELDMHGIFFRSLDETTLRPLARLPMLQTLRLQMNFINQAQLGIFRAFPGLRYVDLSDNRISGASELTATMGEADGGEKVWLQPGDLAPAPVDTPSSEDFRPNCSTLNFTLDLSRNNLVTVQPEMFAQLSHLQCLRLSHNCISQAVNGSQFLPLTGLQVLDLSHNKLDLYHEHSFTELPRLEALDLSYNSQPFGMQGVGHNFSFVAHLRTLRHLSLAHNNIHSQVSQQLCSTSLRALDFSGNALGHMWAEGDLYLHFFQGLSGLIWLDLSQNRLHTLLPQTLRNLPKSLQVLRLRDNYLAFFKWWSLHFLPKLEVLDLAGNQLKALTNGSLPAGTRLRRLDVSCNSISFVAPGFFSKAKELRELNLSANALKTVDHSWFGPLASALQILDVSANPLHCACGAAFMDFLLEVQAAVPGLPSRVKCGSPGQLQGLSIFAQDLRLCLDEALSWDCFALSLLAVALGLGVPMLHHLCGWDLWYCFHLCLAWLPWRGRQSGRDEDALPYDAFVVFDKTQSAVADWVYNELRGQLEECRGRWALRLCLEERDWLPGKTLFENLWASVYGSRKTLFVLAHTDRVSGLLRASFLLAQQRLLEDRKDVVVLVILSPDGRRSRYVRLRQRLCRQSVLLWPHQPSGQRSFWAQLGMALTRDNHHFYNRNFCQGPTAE
In short: as §1

human TLR7 = molecular target: T3, human TLR7 (Homo sapiens, UniProt Q9NYK1); experiment: TLR7 inhibition reporter assay (HEK-Blue cells, SEAP reporter, gardiquimod stimulation); conditions: HEK-Blue cells overexpressing human TLR7, SEAP reporter, gardiquimod 7.5 μM
T3 construct: host or cells: HEK-Blue cells (HEK293-derived reporter line)
T3 sequence (Q9NYK1 27-1049): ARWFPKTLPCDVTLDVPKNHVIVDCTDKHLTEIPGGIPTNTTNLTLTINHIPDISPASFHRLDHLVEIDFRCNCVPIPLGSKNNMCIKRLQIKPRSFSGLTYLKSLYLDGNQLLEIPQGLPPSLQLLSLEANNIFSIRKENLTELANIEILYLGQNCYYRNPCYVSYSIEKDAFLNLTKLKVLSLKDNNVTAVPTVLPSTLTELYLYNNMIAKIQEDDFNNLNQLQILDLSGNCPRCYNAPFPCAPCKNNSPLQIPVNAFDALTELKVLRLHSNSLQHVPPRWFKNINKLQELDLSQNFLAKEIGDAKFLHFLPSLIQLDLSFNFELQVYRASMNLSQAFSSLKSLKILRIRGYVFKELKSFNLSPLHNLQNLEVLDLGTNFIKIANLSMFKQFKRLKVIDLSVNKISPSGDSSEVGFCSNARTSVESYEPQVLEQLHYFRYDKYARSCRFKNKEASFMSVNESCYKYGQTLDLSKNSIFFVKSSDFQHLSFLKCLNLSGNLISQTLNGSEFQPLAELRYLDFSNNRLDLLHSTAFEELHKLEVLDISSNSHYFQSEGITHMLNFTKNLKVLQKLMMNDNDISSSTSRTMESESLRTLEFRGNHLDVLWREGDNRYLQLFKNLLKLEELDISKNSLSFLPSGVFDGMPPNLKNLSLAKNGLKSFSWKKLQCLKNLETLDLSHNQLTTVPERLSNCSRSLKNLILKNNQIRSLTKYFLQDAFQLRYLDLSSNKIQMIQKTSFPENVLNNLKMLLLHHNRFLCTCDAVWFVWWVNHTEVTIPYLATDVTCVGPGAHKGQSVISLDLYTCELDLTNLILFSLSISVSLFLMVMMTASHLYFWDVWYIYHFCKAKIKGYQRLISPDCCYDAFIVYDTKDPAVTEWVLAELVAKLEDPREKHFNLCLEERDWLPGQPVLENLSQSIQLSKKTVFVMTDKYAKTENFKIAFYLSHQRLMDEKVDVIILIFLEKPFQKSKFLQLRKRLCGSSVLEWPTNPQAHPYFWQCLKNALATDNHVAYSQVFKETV
In short: as §1

| SMILES | IC50 (human TLR8) [nM] | IC50 (human TLR9) [nM] | IC50 (human TLR7) [nM] |
| --- | --- | --- | --- |
| Cc1cn2cc(-c3[nH]c4ccc(C5CCNCC5)cc4c3C(C)C)c(C)cc2n1 [Example 122, 6-(3-isopropyl-5-(piperidin-4-yl)-1H-indol-2-yl)-2,7-dimethylimidazo[1,2-a]pyridine] | 100 to 1000 | 100 to 1000 | < 100 |
| CCc1c(-c2ccnc3[nH]nc(C)c23)[nH]c2ccc(C3CCNCC3)cc12 [Example 226, 4-(3-ethyl-5-(piperidin-4-yl)-1H-indol-2-yl)-3-methyl-1H-pyrazolo[3,4-b]pyridine] | < 100 | 100 to 1000 | < 100 |
| Cc1cc(-c2[nH]c3ccc(C4CCN(CC(=O)N(C)C)CC4)cc3c2C(C)C)cc2nccn12 [Example 354, 2-(4-(3-isopropyl-2-(5-methylimidazo[1,2-a]pyridin-7-yl)-1H-indol-5-yl)piperidin-1-yl)-N,N-dimethylacetamide] | 100 to 1000 | 100 to 1000 | 100 to 1000 |
| COc1c(C)c(-c2[nH]c3ccc(C4CCN(C5CCOCC5)CC4)cc3c2C(C)C)nn2ncnc12 [Example 685, 6-(3-isopropyl-5-(1-(tetrahydro-2H-pyran-4-yl)piperidin-4-yl)-1H-indol-2-yl)-8-methoxy-7-methyl-[1,2,4]triazolo[1,5-b]pyridazine] | < 100 | 1000 to 50000 | < 100 |
| CCc1c(-c2ccnc3[nH]ccc23)[nH]c2cc(C)c(C3CCN(C4CCN(C(C)C)CC4)CC3)cc12 [Example 840, 4-(3-ethyl-5-(1′-isopropyl-[1,4′-bipiperidin]-4-yl)-6-methyl-1H-indol-2-yl)-1H-pyrrolo[2,3-b]pyridine] | 1000 to 50000 | 100 to 1000 | 1000 to 50000 |
| CC(C)c1c(-c2ccc3nccn3c2)[nH]c2ccc(C3CCN(C(C)C)CC3)cc12 [Example 946, 6-(3-isopropyl-5-(1-isopropylpiperidin-4-yl)-1H-indol-2-yl)imidazo[1,2-a]pyridine] | < 100 | 100 to 1000 | < 100 |
| Cc1cn2cc(-c3[nH]c4ccc(C5CCN(C(C)C)CC5)cc4c3C(C)C)ccc2n1 [Example 945, 6-(3-isopropyl-5-(1-isopropylpiperidin-4-yl)-1H-indol-2-yl)-2-methylimidazo[1,2-a]pyridine] | 100 to 1000 | 100 to 1000 | < 100 |
| CC(C)c1c(-c2ccnc3[nH]c(=O)[nH]c23)[nH]c2ccc(C3CCNCC3)cc12 [Example 57, 7-(3-isopropyl-5-(piperidin-4-yl)-1H-indol-2-yl)-1,3-dihydro-2H-imidazo[4,5-b]pyridin-2-one] | 1000 to 50000 | 1000 to 50000 | 100 to 1000 |
| CC(C)c1c(-c2ccnc3[nH]ncc23)[nH]c2ccc(C3CCN(Cc4ccc(Oc5ncccn5)cc4)CC3)cc12 [Example 899, 4-(3-isopropyl-5-(1-(4-(pyrimidin-2-yloxy)benzyl)piperidin-4-yl)-1H-indol-2-yl)-1H-pyrazolo[3,4-b]pyridine] | < 100 | 100 to 1000 | < 100 |
| CCOc1cc(-c2[nH]c3ccc(C4CCN(CC(=O)N(C)C)CC4)cc3c2C(C)C)cc2nc(C)nn12 [Example 404, 2-(4-(2-(5-ethoxy-2-methyl-[1,2,4]triazolo[1,5-a]pyridin-7-yl)-3-isopropyl-1H-indol-5-yl)piperidin-1-yl)-N,N-dimethylacetamide] | < 100 | 1000 to 50000 | < 100 |
| CC(C)c1c(-c2cc(C(C)(C)O)c3nccn3c2)[nH]c2ccc(C3CCN(CC(=O)N(C)C)CC3)cc12 [Example 343, 2-(4-(2-(8-(2-hydroxypropan-2-yl)imidazo[1,2-a]pyridin-6-yl)-3-isopropyl-1H-indol-5-yl)piperidin-1-yl)-N,N-dimethylacetamide] | 100 to 1000 | 100 to 1000 | < 100 |
| COc1cc(-c2[nH]c3ccc(C4CCN(C5COC5)CC4)cc3c2C(C)C)nn2ncnc12 [Example 732, 6-(3-isopropyl-5-(1-(oxetan-3-yl)piperidin-4-yl)-1H-indol-2-yl)-8-methoxy-[1,2,4]triazolo[1,5-b]pyridazine] | < 100 | 1000 to 50000 | < 100 |
